In data set [1] the test system is OCI-Ly7. Briefly: Viability test on OCI-Ly7 cells, 48 h. It counts as cell-based, human. The note with it: Homo sapiens, OCI-Ly7, 48 h, 48 h incubation; nd = no significant cytotoxic activity up to 100 μM. The procedure: (§1) JURKAT and CCRF-CEM (T-cell acute lymphoblastic leukemia), HL60 and K562 representing acute and chronic myeloid leukemia, respectively, the chronic lymphocytic leukemia cell line MEC-1, and the diffuse large B-cell lymphoma cell line U-2940 were cultured in Gibco RPMI 1640+GlutaMAX (Life Technologies, Carlsbad, Calif., USA) supplemented with 10% fetal bovine serum gold (FBS gold; PAA Laboratories, Pasching, Austria) and 1% PenStrep (100 U/ml penicillin and 100 μg/ml streptomycin; PAA Laboratories), and maintained at 37° C. in humidified atmosphere with 5% CO2. The diffuse large B-cell lymphoma cell line OCI-LY7 was cultured in Gibco IMDM+GlutaMAX and 25 mM HEPES (Life Technologies) containing 20% FBS gold and 1% PenStrep.
(§2) All experiments with hematological cell lines were done using phenol red-free RPMI 1640+L-glutamine (PAA Laboratories) supplemented with 1% PenStrep and 10% FBS gold, except experiments with OCI-Ly7 which were carried out in Gibco IMEM+GlutaMAX and 25 mM HEPES containing 20% FBS gold and 1% PenStrep. Cells were incubated in triplicates with increasing concentrations of the compounds for 48 h, changes in viability were determined using the cell proliferation and cytotoxicity assays EZ4U (Biomedica Group, Austria) and CellTiter-Blue Cell Viability Assay (Promega, Madison, Wis., USA) following instructions of the manufacturers. IC50 values were calculated from two independent experiments using GraphPad Prism 5 software.
(§3) Initially, compounds were biologically tested in six concentration steps (0.1 μM; 1 μM; 5 μM; 10 μM; 50 μM; and 100 μM) using the CellTiter-Blue Cell Viability Assay (Promega, Madison, Wis., USA) and an incubation time of 48 hours. […] IC50 values were calculated from at least two independent experiments with 3 replicates each. In order to evaluate the biologic activity of the new compounds, cytotoxicity was compared to that of fludarabine, an already approved drug for the treatment of various B-cell malignancies. […] Differences in IC50 values for the different cell types can be explained by the biological and genetic particularities of each subtype of B-cell Non-Hodgkin lymphoma (Stacchini A et al. Leukemia Res 1999, 23, 127-136; Sambade C et al. Int J Cancer 2006, 118, 555-563; Chang H et al. Leukemia lymphoma 1995, 19, 165-171; Tweeddale M E et al. Blood 1987, 69, 1307-1314; Tweeddale M et al. Blood 1989, 74, 572-578).

Data set [2] relates to MEC1. Kind of data set: Viability test (CellTiter-Blue/EZ4U) on MEC1 cells, 48 h. The note with it: Homo sapiens, MEC1, 48 h, 48 h incubation; nd = no significant cytotoxic activity up to 100 μM. It counts as cell-based, human. The procedure:
as §1, §2, §3
(In general: Resazurin is reduced to fluorescent resorufin, in cell work by metabolically active cells.)

Data set [3] has as its system M2-10B4. Kind of data set: Viability test on mouse fibroblast cell line M2-10B4, 48 h. It counts as cell-based. The conditions noted are these: for IC50: Mus musculus, M210B4, 48 h, 48 h incubation, mouse fibroblast cell line. The procedure:
as §2
Structurally seen, the small molecule compound 1 represents a typical chalcone scaffold. It is characterized by an ortho-ethoxy-substituted phenyl part as ring A and a 2-naphthyl moiety symbolizing ring B. The focus of the present study was to guide the systematic identification of a growth inhibitor with specificity to neoplastic cells, as cytotoxicity towards healthy cells is mostly associated with adverse effects, which can be related to morbidity and mortality of the patient (Milligan D W et al. Brit J Haematol 2006, 135, 450-474). To discriminate in vitro between structural elements necessary for potent cytotoxicity towards tumor cells which, at the same time, clearly show less activity on normal cells, the compounds were additionally tested on the murine bone marrow fibroblast cell line M2-10B4. This cell line is regularly used as feeder layer when cultured with patient cells providing additional support and survival signals in particular in drug screens (Kurtova A V et al. Blood 2009, 114, 4441-4450).
as §3

Data set [4] concerns U-2940. Kind of data set: Viability test on U-2940 cells, 48 h. It counts as cell-based, human. The note with it: Homo sapiens, U-2940, 48 h, 48 h incubation; nd = no significant cytotoxic activity up to 100 μM. The procedure: as §1, §2, §3

For the compound `COc1ccccc1C(=O)/C=C/c1ccc2ccccc2c1` [Compound 2, 1-(2-Methoxyphenyl)-3-(2-naphthyl)-2-propen-1-one], the IC50 (in general, the midpoint of a concentration-inhibition curve) amounted to 0.46 µM in data set [1], 0.43 µM in data set [2], 41.8 µM in data set [3] and 4.09 µM in data set [4].

As for `CCCOc1ccccc1C(=O)/C=C/c1ccc2ccccc2c1` [Compound 3, 3-(2-Naphthyl)-1-(2-propoxyphenyl)-2-propen-1-one], the IC50 was 0.1 µM in data set [1], 0.13 µM in data set [2], greater than 100 µM in data set [3] and 5.31 µM in data set [4].

For the compound `CCCCOc1ccccc1C(=O)/C=C/c1ccc2ccccc2c1` [Compound 4, 1-(2-Butoxyphenyl)-3-(2-naphthyl)-2-propen-1-one], the IC50 is 0.12 µM in data set [1], 0.7 µM in data set [2], greater than 100 µM in data set [3] and 5.31 µM in data set [4].

With `Cc1ccccc1C(=O)/C=C/c1ccc2ccccc2c1` [Compound 6, 1-(2-Methylphenyl)-3-(2-naphthyl)-2-propen-1-one], the IC50 in data set [1] was found to be 4.92 µM; in data set [2], 6.36 µM; in data set [3] it was 72 µM; in data set [4] it was 10.3 µM.

For the compound `CCOc1ccccc1C(=O)/C=C/c1ccc2cc(OC)ccc2c1` [Compound 7, 1-(2-Ethoxyphenyl)-3-(6-methoxy-2-naphthyl)-2-propen-1-one], the concentration for half-maximal inhibition (IC50) in data set [1] was 1.01 µM; in data set [2], 7.16 µM; in data set [3], greater than 100 µM; in data set [4], 24.7 µM. For the same compound, the “cytotoxic potential on M2-10B4 (in words)” value in data set [3] (mouse fibroblasts) is listed as “no cytotoxic potential”.

`CCOc1cccc(C(=O)/C=C/c2ccc3ccccc3c2)c1` [Compound 16, 3-(2-Napthyl)-1-(3-ethoxyphenyl)-2-propen-1-one]: the melting point (as a rule, the temperature, or range, at which the solid turns liquid) fell in the range of 97 to 100 °C. The same compound came in with a half-maximal inhibitory concentration (IC50) in data set [1] of 1.76 µM. The compound also showed a half-inhibitory concentration (IC50) in data set [2] of 2.85 µM. In data set [4], the IC50 is 16.2 µM.

The compound `CCOc1ccc(C(=O)/C=C/c2ccc3ccccc3c2)cc1` [Compound 17, 3-(2-Napthyl)-1-(4-ethoxyphenyl)-2-propen-1-one] gave a melting point of 159 to 161 °C.

`CCOc1cccc(C(=O)/C=C/c2csc3ccccc23)c1` [Compound 18, 3-(1-Benzothien-3-yl)-1-(3-ethoxyphenyl)-2-propen-1-one] had a melting point of 103 to 106 °C. Moreover, the IC50 in data set [1] is 1.67 µM. In data set [2], the concentration for half-maximal inhibition (IC50) was 2.21 µM. The compound also yielded an IC50 in data set [4] of 7.59 µM.

`CCOc1ccc(C(=O)/C=C/c2csc3ccccc23)cc1` [Compound 19, 3-(1-Benzothien-3-yl)-1-(4-ethoxyphenyl)-2-propen-1-one]: the melting point is 129 to 130 °C. The IC50 in data set [1] is 4.77 µM. Also, in data set [2], 7.5 µM corresponded to half-maximal inhibition (IC50). The half-inhibitory concentration (IC50) in data set [4] was 14.6 µM.

In the case of `CCOc1cccc(C(=O)/C=C/c2cc3ccccc3[nH]2)c1` [Compound 20, 1-(3-Ethoxyphenyl)-3-(1H-indole-2-yl)-2-propen-1-one], the melting point fell in the range of 156 to 158 °C. The same compound yielded an IC50 in data set [1] of 4.83 µM. The compound further came in with an IC50 in data set [2] of 3.33 µM.

With `CCOc1ccc(C(=O)/C=C/c2cc3ccccc3[nH]2)cc1` [Compound 21, 1-(4-Ethoxyphenyl)-3-(1H-indole-2-yl)-2-propen-1-one], the melting point was in the range of 178 to 181 °C. In data set [1], the IC50 is 25.3 µM.

For the compound `CCOc1ccccc1C(=O)/C=C/c1ccc2[nH]ccc2c1` [Compound 22, (E)-1-(2-Ethoxyphenyl)-3-(1H-indol-5-yl)-2-propen-1-one], the melting point lay in the range of 151 to 153 °C. The compound also showed a half-maximal inhibitory concentration (IC50) in data set [1] of 0.03 µM. Besides, the IC50 in data set [2] turned out to be 0.05 µM. In data set [4], this compound had an IC50 of 1.71 µM.

Turning to `CCOc1cccc(C(=O)/C=C/c2ccc3[nH]ccc3c2)c1` [Compound 23, (E)-1-(3-Ethoxyphenyl)-3-(1H-indol-5-yl)-2-propen-1-one], the melting point was in the range of 121 to 123 °C. For the same compound, the IC50 in data set [1] was found to be 1.47 µM. The same compound registered a half-inhibitory concentration (IC50) in data set [2] of 2.6 µM. Also, the 50% inhibitory concentration (IC50) in data set [4] was 10 µM.

Regarding `CCOc1ccc(C(=O)/C=C/c2ccc3[nH]ccc3c2)cc1` [Compound 24, (E)-1-(4-Ethoxyphenyl)-3-(1H-indol-5-yl)-2-propen-1-one], the melting point is 171 to 173 °C. Moreover, in data set [1], the midpoint of inhibition, the IC50, lay at 15.9 µM. In data set [2], this compound registered a half-maximal inhibitory concentration (IC50) of 26.6 µM. In data set [4], the midpoint of inhibition, the IC50, lay at 50 µM.

Compound `CCCOc1ccccc1C(=O)/C=C/c1ccc2[nH]ccc2c1` [Compound 25, (E)-3-(1H-indol-5-yl)-1-(2-propoxyphenyl)-2-propen-1-one] returned a melting point of 114 to 116 °C. The same compound gave an IC50 in data set [1] of 0.12 µM. Half-maximal inhibition in data set [2] (IC50) was put at 0.14 µM. The compound also returned an IC50 in data set [4] of 7.1 µM.

Compound `CCCOc1ccccc1C(=O)/C=C/c1cc2ccccc2[nH]1` [Compound 26, (E)-3-(1H-indol-2-yl)-1-(2-propoxyphenyl)-2-propen-1-one] gave a melting point of 112 to 114 °C. In addition, the IC50 in data set [1] turned out to be 0.08 µM. In data set [2], the IC50 was 0.04 µM. Besides, in data set [4], the IC50 was 10.1 µM.

As to `CCOc1ccccc1C(=O)/C=C/c1cc2ccccc2s1` [Compound 27, (E)-3-(1-Benzothiophen-2-yl)-1-(2-ethoxyphenyl)-2-propen-1-one], the melting point was in the range of 95 to 98 °C. Moreover, the IC50 in data set [1] was determined as 0.07 µM. The IC50 in data set [2] is 0.06 µM. For the same compound, in data set [4], half-maximal inhibition (IC50) required 2.31 µM.

`CCOc1cccc(C(=O)/C=C/c2ccc3sccc3c2)c1` [Compound 28] returned a melting point of 98 to 99 °C. Moreover, the half-inhibitory concentration (IC50) in data set [1] worked out at 4.78 µM. In data set [2], this compound yielded an IC50 of 5.48 µM. In data set [4], the IC50 is 12.9 µM.

For `CCOc1ccc(C(=O)/C=C/c2ccc3sccc3c2)cc1` [Compound 29], the melting point was 149 to 151 °C. The half-inhibitory concentration (IC50) in data set [2] is 231 µM.

In the case of `CCOc1ccccc1C(=O)/C=C/c1ccc(-c2cccs2)s1` [Compound 30, (E)-3-(2,2′-bithiophen-5-yl)-1-(2-ethoxyphenyl)-2-propen-1-one], the IC50 in data set [1] turned out to be 0.02 µM; in data set [2], 0.02 µM; in data set [4] it was 3.13 µM.

As for `CCOc1ccccc1C(=O)/C=C/c1cc2ccccc2o1` [Compound 31, (E)-3-(1-Benzofuran-2-yl)-1-(2-ethoxyphenyl)-2-propen-1-one], the melting point lay in the range of 79 to 81 °C. The IC50 in data set [1] came out at 0.05 µM. For the same compound, in data set [2], the half-maximal inhibitory concentration (IC50) is 0.2 µM. Further, the half-maximal inhibitory concentration (IC50) in data set [4] amounted to 7.1 µM.

The compound `CCOc1cccc(C(=O)/C=C/c2cc3ccccc3o2)c1` [Compound 32, (E)-3-(1-Benzofuran-2-yl)-1-(3-ethoxyphenyl)-2-propen-1-one] yielded a melting point of 127 to 129 °C. In addition, in data set [1], the IC50 was determined as 16.7 µM. For the same compound, half-maximal inhibition in data set [2] (IC50) required 6.91 µM. In addition, the midpoint of inhibition in data set [4], the IC50, lay at 44.3 µM.

In turn, `CCOc1ccc(C(=O)/C=C/c2cc3ccccc3o2)cc1` [Compound 33, (E)-3-(1-Benzofuran-2-yl)-1-(4-ethoxyphenyl)-2-propen-1-one] returned a melting point of 100 to 101 °C. This compound also displayed an IC50 in data set [1] of 19.5 µM. In data set [2], the half-inhibitory concentration (IC50) came to 38.8 µM. In data set [4], half-maximal inhibition (IC50) required 42.2 µM.

For `CCOc1cccc(C(=O)/C=C/c2ccc3c(c2)OCO3)c1` [Compound 34, (E)-3-(1,3-benzodioxol-5-yl)-1-(3-ethoxyphenyl)prop-2-en-1-one], the half-inhibitory concentration (IC50) in data set [1] amounted to 6.35 µM; in data set [2] it was 8.73 µM; in data set [4] it was 18.8 µM.

The record behind these values is patent US10280156B2, “Heteroaromatic chalcone derivatives and their medical use” (Medizinische Universität Wien, priority 2014, dated 2019).
